The numbers were not newly measured in patent publication US11400098B2, “Method of treating microbial infections” (priority 2011, dated 2022), which cites them from elsewhere.

This data set relates to S. epidermidis. The note with it: background statement.

As for `O=C(OOC(=O)c1ccccc1)c1ccccc1` [BPO, benzoyl peroxide], the “effect on growth of S. epidermidis” value is “strongly suppresses the growth”.
